Active and inactive are the calls of the source.

The test system of test [1] is Vero. Description: Vero cell toxicity, dose response, cytotoxicity control, plate reader, cherry-pick samples (AID 687020). The following applies: Chlorocebus sabaeus. The class given is functional, cell-based.
Test [2] is described as follows: inhibitors of CMV-promoter luciferase reporter, dose response, counter-screen for Pax8 inhibitor project, cell-based, HEK293, luminescence, dry powder (AID 743020). In kind it is functional. Background: A reporter such as luciferase makes a cellular process visible.
The nature of test [3]: Luminescence Cell-Based Dose Confirmation HTS to Identify Activators of 5'UTR Stem-Loop Driven Alpha-Synuclein mRNA Translation in H4 Neuroglioblastoma Cells. [Related pubchem assays: 1829 (Project Summary), 1814 (Primary HTS)]. The class given is functional.
Test [4] can be described thus: Luminescence Cell-Based Dose Response HTS to Identify Activators of Luciferase Translation or Activity in H4 […] Cells. [Related pubchem assays: 1829 (Project Summary), 1814 (Primary HTS)]. In kind it is functional.
Test [5] has as its system H4. Description: Luminescence Cell-Based Dose Response HTS to Identify Activators of 5'UTR Stem-Loop Driven Prion Protein mRNA Translation in H4 Neuroglioblastoma Cells. [Related pubchem assays: 1829 (Project Summary), 1814 (Primary HTS)]. The class given is functional. The following applies: Homo sapiens.
Test [6] addresses T1, Low molecular weight phosphotyrosine protein phosphatase (Homo sapiens, UniProt P24666).
T1 sequence (P24666 whole entry): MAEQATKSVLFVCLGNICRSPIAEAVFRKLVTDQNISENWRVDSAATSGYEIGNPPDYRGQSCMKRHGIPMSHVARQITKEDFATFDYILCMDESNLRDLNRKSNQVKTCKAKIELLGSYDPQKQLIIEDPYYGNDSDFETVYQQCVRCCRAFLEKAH
The class given is functional. As to conditions: read-out: IC50_Mean.

For test [7], the target named is T1, Low molecular weight phosphotyrosine protein phosphatase. In kind it is functional. The following applies: read-out: IC50_Mean. This is another data set of the same source.
Test [8] concerns the target T2, DNA repair and recombination protein RAD54-like (Homo sapiens, UniProt Q92698).
T2 sequence (Q92698 whole entry): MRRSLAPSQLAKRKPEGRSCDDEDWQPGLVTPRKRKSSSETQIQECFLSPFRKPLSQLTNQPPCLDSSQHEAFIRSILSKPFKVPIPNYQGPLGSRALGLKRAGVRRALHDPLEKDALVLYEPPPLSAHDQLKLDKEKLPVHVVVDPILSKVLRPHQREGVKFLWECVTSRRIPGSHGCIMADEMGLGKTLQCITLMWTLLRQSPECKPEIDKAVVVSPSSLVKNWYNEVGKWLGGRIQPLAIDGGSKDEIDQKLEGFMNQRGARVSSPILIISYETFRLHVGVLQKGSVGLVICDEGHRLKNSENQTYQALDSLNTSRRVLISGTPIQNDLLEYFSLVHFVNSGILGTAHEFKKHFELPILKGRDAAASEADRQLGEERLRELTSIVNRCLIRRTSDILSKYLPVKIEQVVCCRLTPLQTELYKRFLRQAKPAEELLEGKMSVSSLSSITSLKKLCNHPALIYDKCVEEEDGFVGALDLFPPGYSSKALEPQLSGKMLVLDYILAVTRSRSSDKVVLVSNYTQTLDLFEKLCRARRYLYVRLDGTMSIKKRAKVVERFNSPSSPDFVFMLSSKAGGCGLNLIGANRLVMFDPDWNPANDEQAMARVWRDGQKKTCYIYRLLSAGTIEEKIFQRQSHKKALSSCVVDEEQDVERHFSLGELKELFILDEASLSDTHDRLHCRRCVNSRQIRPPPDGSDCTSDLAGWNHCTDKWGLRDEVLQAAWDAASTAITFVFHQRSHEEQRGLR
Description: inhibitors of human RAD54 branch migration, confirmation, biochemical, fluorescence, cherry-picked samples, dose series (AID 651657). In kind it is functional.

The target in test [9] is Peroxisome proliferator-activated receptor gamma/Nuclear receptor coactivator 1 (Homo sapiens, UniProt P37231). Description: TR-FRET dose response biochemical High Throughput Screening assay for agonists of the steroid receptor coactivator 1 (SRC-1) recruitment by the peroxisome proliferator-activated receptor gamma (PPAR gamma): non-selective agonists. [Related pubchem assays (depositor defined):AID1300, AID1808, AID504735, AID631]. In kind it is protein assay.

The target of test [10] is Peroxisome proliferator-activated receptor gamma/Nuclear receptor coactivator 3 (Homo sapiens, UniProt P37231). Description: TR-FRET dose response biochemical High Throughput Screening assay for agonists of the steroid receptor coactivator 3 (SRC-3) recruitment by the peroxisome proliferator-activated receptor gamma (PPAR gamma): non-selective agonists. [Related pubchem assays: 1301 (Confirmation screen.), 1048 (Primary screen.)]. In kind it is functional. A general note: In TR-FRET formats the signal depends on donor and acceptor labels being close together.

Test [11] concerns the target Peroxisome proliferator-activated receptor gamma/Nuclear receptor coactivator 2 (Homo sapiens, UniProt P37231). Description: TR-FRET dose response biochemical High Throughput Screening assay for agonists of the steroid receptor coactivator 2 (SRC-2) recruitment by the peroxisome proliferator-activated receptor gamma (PPAR gamma): non-selective agonists. [Related pubchem assays: 1297, 1032 ]. The class given is functional.

Test [12] concerns the target Beta-galactosidase (Escherichia coli, UniProt Q8VNN2). Description: Dose response counterscreen for EBI2 assay utilizing the enzyme, b-galactosidase. The class given is functional. For orientation: Counterscreens check selectivity or assay interference.
Test [13] is described as follows: cells. In kind it is functional, cell-based.
Test [14] is described as follows: cells. The class given is functional, cell-based. The source holds these as a separate data set.
The nature of test [15]: NIH/3T3 fibroblast cytotoxicity, dose response, cytotoxicity control for T. cruzi growth inhibitor project, cell-based, cherry-pick samples, set 2 (AID 651817). As to conditions: NIH3T3. The class given is functional.
Test [16] in a line: T. cruzi growth inhibition in host cells, dose response, cell-based, plate reader, dry powder, set 2 (AID 652275). The class given is functional.
Test [17] concerns the target Galanin receptor type 3 (Homo sapiens, UniProt O60755). Description: Fluorescence-based cell-based primary high throughput dose response assay to identify antagonists of the Galanin Receptor 3 (GalR3). The class given is functional.
The nature of test [18]: cells. In kind it is functional, cell-based. The following applies: HEK-CNG.
Test [19] concerns the target Beta-lactamase (Salmonella choleraesuis (strain SC-B67), UniProt Q5J463). Description: Epi-absorbance-based counterscreen for selective VIM-2 inhibitors: dose response biochemical high throughput screening assay to identify inhibitors of TEM-1 serine-beta-lactamase.
The target of test [20] is T3, Aminopeptidase N (Plasmodium falciparum FcB1/Columbia, UniProt O96935).
T3 sequence (O96935 whole entry): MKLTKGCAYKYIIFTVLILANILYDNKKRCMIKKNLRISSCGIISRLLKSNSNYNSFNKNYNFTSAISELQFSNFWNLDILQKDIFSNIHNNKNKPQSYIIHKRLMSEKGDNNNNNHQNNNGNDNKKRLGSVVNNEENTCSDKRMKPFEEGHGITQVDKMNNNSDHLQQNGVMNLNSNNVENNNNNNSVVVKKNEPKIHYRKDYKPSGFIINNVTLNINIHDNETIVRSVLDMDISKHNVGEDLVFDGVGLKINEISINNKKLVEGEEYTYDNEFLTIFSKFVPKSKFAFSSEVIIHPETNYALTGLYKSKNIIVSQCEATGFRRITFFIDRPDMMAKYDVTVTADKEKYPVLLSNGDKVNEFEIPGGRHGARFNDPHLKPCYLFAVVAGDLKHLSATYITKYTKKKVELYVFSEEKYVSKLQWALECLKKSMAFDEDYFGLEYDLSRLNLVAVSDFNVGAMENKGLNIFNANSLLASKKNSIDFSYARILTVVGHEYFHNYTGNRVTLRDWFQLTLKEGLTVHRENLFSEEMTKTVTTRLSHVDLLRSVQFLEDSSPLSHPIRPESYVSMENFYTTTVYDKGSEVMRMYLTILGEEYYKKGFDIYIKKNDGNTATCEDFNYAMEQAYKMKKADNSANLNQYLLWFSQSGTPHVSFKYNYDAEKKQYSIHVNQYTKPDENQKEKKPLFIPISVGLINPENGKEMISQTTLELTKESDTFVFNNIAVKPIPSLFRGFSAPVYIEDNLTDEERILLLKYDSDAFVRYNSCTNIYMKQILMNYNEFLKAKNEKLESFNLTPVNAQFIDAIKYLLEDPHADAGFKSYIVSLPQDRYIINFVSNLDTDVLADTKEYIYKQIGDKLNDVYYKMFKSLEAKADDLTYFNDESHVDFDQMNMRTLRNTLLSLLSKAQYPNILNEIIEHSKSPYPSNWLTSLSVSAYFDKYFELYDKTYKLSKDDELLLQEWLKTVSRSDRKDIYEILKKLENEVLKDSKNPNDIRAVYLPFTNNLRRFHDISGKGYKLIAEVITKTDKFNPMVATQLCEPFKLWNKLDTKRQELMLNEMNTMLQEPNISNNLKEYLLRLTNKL
Description: P. falciparum M1AAP inhibitors, biochemical, fluorogenic H-Leu-NHMec substrate, 1536-well (AID 1445). Further details: species or system Plasmodium falciparum 3D7, 3D7.

Test [21] addresses T4, Beta-lactamase (Pseudomonas aeruginosa, UniProt Q79MP6). Description: IMP-1 metallo-beta-lactamase inhibitors, dose response, selectivity assay for VIM-2 inhibitor project, biochemical, epi-absorbance (AID 1920).
The target in test [22] is T4, Beta-lactamase. Description: […] counterscreen for selective VIM-2 inhibitors: dose response biochemical high throughput screening assay to identify inhibitors of IMP-1 metallo-beta-lactamase.
Test [23] addresses T5, Cysteine protease ATG4B (Homo sapiens, UniProt Q9Y4P1).
T5 sequence (Q9Y4P1 whole entry): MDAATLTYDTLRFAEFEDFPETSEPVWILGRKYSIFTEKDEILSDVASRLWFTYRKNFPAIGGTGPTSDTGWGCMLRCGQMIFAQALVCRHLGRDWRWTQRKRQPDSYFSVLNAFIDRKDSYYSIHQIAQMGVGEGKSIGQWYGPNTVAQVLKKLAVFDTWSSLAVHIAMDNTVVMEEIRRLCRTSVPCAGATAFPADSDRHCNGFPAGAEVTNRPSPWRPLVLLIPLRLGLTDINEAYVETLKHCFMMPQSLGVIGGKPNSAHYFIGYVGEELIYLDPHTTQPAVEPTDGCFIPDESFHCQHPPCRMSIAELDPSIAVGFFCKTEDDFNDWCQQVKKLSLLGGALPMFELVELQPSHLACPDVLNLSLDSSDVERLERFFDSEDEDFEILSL
The class given is functional.

Test [24] deals with Phospholipase A2 (Homo sapiens, UniProt P04054). In kind it is functional.
A short description of test [25]: HEK293T cell cytotoxicity, dose response, cytotoxicity control for HIV Vif inhibitor project, cherry-picks (AID 652208). The class given is functional, cell-based.
Test [26] has as its target Cytochrome P450 3A4 (Homo sapiens, UniProt P08684).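 Further: CYP3A4 tested as one member of a cytochrome P450 panel screen.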
For test [27], the target named is Cytochrome P450 2C9 (Homo sapiens, UniProt P11712).
Cytochrome P450 2C9, sequence (P11712 whole entry): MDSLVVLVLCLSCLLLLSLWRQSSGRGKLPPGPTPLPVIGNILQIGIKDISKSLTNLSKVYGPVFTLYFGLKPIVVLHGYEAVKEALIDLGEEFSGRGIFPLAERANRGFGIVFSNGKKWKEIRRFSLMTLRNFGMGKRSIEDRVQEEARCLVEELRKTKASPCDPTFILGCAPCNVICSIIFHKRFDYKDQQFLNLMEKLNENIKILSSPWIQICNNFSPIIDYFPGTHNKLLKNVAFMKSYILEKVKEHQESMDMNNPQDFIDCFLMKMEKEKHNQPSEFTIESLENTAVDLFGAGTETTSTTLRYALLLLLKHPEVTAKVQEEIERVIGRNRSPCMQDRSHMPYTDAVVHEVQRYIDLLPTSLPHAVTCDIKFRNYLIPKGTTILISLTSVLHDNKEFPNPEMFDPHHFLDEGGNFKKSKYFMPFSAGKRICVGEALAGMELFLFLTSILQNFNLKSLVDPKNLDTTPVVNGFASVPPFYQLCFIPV

T4 sequence (Q79MP6 whole entry): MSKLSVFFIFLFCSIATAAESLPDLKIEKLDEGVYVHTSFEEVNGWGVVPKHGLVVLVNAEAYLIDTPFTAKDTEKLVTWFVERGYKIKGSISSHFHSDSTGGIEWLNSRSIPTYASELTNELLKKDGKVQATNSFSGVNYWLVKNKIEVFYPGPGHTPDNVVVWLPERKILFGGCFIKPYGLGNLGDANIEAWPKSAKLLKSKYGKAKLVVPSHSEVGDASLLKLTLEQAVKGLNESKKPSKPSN
Beta-lactamase (Salmonella choleraesuis (strain SC-B67), UniProt Q5J463), sequence (Q5J463 whole entry): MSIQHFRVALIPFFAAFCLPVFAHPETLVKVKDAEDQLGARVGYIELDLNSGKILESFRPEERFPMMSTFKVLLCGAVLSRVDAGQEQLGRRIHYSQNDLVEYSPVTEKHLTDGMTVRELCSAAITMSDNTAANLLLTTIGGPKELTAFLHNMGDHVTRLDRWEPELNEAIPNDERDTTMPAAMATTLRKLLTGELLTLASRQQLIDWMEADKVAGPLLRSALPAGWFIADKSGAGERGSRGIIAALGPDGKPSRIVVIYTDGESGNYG
Beta-galactosidase, sequence (Q8VNN2 whole entry): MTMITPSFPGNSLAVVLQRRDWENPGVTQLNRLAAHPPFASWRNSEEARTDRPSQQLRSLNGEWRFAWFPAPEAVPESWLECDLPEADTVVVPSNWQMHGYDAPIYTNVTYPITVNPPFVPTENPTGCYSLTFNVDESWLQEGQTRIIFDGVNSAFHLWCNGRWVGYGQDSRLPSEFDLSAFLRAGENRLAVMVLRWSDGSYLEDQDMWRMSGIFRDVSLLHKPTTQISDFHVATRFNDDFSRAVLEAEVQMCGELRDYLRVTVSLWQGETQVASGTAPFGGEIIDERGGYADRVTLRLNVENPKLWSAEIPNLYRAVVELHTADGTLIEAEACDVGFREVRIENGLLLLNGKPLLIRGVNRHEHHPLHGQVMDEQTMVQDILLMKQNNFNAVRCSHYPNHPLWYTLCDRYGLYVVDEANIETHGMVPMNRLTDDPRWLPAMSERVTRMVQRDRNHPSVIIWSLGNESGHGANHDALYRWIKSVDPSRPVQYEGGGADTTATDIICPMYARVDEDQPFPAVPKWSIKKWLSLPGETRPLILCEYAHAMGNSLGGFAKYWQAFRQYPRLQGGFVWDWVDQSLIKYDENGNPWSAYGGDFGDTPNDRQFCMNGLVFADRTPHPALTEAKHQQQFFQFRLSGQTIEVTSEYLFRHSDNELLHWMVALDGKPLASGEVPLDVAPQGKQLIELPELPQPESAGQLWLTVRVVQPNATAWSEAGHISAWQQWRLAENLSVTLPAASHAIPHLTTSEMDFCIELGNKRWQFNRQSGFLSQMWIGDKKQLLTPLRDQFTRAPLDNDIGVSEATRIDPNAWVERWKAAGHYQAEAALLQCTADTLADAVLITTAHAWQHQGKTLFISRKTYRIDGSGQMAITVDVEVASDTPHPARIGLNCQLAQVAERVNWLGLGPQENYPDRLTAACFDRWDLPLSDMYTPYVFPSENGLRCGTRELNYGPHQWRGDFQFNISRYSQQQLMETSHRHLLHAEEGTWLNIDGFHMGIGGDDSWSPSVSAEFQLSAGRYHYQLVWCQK
Peroxisome proliferator-activated receptor gamma/Nuclear receptor coactivator 3, sequence (P37231 whole entry): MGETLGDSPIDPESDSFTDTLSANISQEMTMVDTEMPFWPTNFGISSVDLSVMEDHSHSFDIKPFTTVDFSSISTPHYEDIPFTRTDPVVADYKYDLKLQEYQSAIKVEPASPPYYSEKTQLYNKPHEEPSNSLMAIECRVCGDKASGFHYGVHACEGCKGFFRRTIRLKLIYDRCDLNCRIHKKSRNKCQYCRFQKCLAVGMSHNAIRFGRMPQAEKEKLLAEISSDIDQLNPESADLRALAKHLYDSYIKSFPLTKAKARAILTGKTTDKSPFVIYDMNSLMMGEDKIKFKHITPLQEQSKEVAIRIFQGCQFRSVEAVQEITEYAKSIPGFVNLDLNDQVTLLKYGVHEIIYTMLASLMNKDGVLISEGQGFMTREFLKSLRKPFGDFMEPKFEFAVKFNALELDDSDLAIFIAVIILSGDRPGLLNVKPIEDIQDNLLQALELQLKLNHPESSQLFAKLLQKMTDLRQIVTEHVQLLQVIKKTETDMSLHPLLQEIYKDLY
Peroxisome proliferator-activated receptor gamma/Nuclear receptor coactivator 3, sequence (Q9Y6Q9 whole entry, further chain): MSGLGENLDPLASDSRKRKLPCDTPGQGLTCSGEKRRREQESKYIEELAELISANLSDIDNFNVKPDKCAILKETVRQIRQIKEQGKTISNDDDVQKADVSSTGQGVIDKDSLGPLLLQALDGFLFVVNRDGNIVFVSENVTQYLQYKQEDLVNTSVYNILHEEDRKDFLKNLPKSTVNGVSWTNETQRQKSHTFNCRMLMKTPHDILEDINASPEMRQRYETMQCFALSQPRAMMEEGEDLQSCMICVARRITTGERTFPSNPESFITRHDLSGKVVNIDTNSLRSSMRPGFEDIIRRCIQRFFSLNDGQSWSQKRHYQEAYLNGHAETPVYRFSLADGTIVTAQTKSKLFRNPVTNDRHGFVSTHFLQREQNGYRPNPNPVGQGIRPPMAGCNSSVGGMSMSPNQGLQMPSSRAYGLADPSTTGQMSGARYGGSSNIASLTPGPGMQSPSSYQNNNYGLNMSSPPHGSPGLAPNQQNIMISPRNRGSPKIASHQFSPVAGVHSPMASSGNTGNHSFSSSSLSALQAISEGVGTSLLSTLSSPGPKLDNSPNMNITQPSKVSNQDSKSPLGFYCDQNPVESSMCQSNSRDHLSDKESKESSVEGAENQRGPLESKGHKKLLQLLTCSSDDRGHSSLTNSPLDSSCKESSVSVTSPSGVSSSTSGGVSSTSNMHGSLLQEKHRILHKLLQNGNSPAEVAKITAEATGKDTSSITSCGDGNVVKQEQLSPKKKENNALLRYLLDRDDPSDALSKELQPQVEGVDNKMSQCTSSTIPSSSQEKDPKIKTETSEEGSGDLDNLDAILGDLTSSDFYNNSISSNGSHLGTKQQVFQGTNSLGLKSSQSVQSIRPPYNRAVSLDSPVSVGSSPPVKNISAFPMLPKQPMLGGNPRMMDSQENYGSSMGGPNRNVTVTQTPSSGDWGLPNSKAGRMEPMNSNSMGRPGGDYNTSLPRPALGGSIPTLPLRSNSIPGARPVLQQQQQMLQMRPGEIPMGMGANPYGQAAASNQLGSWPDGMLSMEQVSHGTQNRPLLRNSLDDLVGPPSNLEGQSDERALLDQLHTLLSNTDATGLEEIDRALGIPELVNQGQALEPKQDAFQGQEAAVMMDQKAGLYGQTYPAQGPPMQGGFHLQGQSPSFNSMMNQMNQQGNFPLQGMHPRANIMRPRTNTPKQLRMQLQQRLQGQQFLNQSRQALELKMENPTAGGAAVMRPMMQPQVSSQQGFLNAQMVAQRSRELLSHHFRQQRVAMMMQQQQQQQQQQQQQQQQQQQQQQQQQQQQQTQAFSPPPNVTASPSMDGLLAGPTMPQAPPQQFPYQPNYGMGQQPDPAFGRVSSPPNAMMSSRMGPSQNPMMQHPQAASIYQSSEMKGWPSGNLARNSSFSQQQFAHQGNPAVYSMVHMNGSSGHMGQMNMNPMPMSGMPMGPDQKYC
Cytochrome P450 3A4, sequence (P08684 whole entry): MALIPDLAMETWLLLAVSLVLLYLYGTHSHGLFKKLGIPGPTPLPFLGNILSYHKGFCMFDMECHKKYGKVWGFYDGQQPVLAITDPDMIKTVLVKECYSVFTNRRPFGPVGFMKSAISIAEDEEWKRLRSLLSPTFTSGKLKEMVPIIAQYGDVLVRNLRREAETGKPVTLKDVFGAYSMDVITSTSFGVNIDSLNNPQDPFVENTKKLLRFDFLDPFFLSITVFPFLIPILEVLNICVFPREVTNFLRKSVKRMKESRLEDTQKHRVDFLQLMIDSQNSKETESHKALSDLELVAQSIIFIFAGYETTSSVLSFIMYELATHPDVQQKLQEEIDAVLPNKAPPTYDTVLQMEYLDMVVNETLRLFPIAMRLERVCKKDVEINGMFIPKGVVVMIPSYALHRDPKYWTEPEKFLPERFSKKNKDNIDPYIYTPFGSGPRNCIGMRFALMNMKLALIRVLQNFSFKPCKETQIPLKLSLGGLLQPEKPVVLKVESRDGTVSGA
Galanin receptor type 3, sequence (O60755 whole entry): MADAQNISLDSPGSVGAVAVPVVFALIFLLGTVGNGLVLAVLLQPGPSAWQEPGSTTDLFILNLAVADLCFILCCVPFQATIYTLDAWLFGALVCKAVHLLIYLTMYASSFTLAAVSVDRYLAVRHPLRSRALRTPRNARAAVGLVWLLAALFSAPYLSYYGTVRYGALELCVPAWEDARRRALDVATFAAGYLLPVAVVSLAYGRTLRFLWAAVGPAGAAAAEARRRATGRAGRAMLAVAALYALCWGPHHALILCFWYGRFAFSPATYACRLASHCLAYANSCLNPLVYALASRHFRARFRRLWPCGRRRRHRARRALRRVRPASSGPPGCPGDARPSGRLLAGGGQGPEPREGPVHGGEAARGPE
Phospholipase A2, sequence (P04054 whole entry): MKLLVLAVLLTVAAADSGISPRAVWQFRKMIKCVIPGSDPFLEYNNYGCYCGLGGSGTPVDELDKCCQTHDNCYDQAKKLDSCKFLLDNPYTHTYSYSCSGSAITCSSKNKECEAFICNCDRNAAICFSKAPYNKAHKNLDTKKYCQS

Take `CC1CCN(CCOc2ccc(OCc3ccccc3)cc2)CC1`: the AC50 (as a rule, the midpoint of the concentration-response curve, whichever way the signal moves) in [1] was 25.9 µM (active); in test [2], < 9.29 µM (active).
With `Cc1ccc(-c2nc(NCCN3CCOCC3)c3ccccc3n2)cc1`, the EC50 (commonly the concentration that produces a half-maximal response) is 56.3 µM (active) in test [3], 21.1 µM (active) in [4] and 16.9 µM (active) in test [5]. The IC50 in test [6] was 30.7 µM (inactive); in [7] it was 16 µM (active). The AC50 in [8] was 24.8 µM (active).
With `CNC(=S)N1N=C(c2ccc(Br)cc2)CC1c1ccc(OC)cc1` (stereo not drawn), the EC50 in test [9] was 14.5 µM (inactive); in [10], 49.9 µM (not active); in [11], 17.3 µM (not active). Further, the IC50 in test [12] was > 80 µM (inactive).
With `O=C(Nc1ccccc1)Nc1nncs1`, the IC50 in [13] was > 29.9 µM (inactive). Also, the EC50 in test [14] is > 29.9 µM (inactive).
Take `CO/N=C/c1ccc(Oc2ccc(C)cc2)nc1`: in [12], the IC50 is > 80 µM (inactive).
Turning to `C[C@H]1CN([C@@H](C)CO)C(=O)c2cccc(NC(=O)c3nc4ccccc4s3)c2O[C@@H]1CN(C)Cc1ccc2c(c1)OCO2`, the AC50 in test [15] is 9.31 µM (active).
In the case of `C[C@@H]1CN([C@@H](C)CO)C(=O)c2cccc(NC(=O)c3ccncc3)c2O[C@@H]1CN(C)Cc1ccccc1`, the AC50 in [15] was 39 µM (inactive).
As to `CC(C)N1C[C@@H](CN(C)Cc2ccc(Cl)cc2)Oc2c(NC(=O)c3ccncc3)cccc2C1=O`, the AC50 in [16] was 0.0045 µM (active).
As for `COc1ccc(CN2CCC(C(=O)Nc3ccc(Oc4ccccc4)nc3)CC2)cc1F`, in [17], the IC50 is 3.56 µM (active). Moreover, in test [18], the EC50 is > 29.9 µM (inactive).
For `Cc1cc(OCc2cc(C(=O)O)oc2C)c2c3c(c(=O)oc2c1)CCCC3`, the IC50 is > 59.6 µM (inactive) in [19]; 66.4 µM (active) in test [20]; > 59.6 µM (inactive) in test [21]; > 59.6 µM (inactive) in test [22]; 17.3 µM (active) in test [23]; 13.5 µM (active) in test [24].
With `CCCc1cc(=O)oc2cc(OCc3cc(OC)c(OC)c(OC)c3)c(Cl)cc12`, the values for the AC50 in test [25], in test [26] and in test [27] were > 52 µM (inactive), 3.55 µM (inconclusive) and 1 µM (inconclusive), respectively.
`Cc1cc(C(=O)OCC(=O)NC(=O)c2cccn2C)c2ccccc2n1`: the IC50 in [19], in test [21] and in test [22] was > 59.6 µM (inactive) in each case.
`O=C(CN1CCC(O)(c2cccc(C(F)(F)F)c2)CC1)NCCc1ccccc1`: the AC50 in test [1] was 11.6 µM (active).

The record behind these values is ChEMBL document CHEMBL1201862, “PubChem BioAssay data set” (2004).
